Test results reported in patent publication US10538555B2, “Macrocyclic inhibitors of the PD-1/PD-L1 and CD80(B7-1)/PD-L1 protein/protein interactions” (BRISTOL-MYERS SQUIBB COMPANY, priority 2014, dated 2020).
*1 amine or outer side, *2 acyl side, *3 side chain or, on linkers, in order; H or OH if unused. Where a SMILES comes first, the peptide text is derived from it. Bridges are numbered along the chain shown (N, C = ends). [ ]: non-standard residue; d: D form. ξ: configuration not given here. Trp(1-CH2COOH) = N[C@@H](Cc1cn(CC(=O)O)c2ccccc12)C(=O)O; Phe(3,4,5-F3) = N[C@@H](Cc1cc(F)c(F)c(F)c1)C(=O)O; NMePhe(4-F) = CN[C@@H](Cc1ccc(F)cc1)C(=O)O; Phe(4-Cl) = N[C@@H](Cc1ccc(Cl)cc1)C(=O)O; d(cisHyp) = O=C(O)[C@H]1C[C@@H](O)CN1; Bta = N[C@@H](Cc1csc2ccccc12)C(=O)O; NMeY = CN[C@@H](Cc1ccc(O)cc1)C(=O)O; Hyp = O=C(O)[C@@H]1C[C@@H](O)CN1; NMeF = CN[C@@H](Cc1ccccc1)C(=O)O; X1 = O=C([C@H]1COCCN1[*:1])[*:2]; dHyp = O=C(O)[C@H]1C[C@H](O)CN1; NMeNle = CCCC[C@H](NC)C(=O)O; Pip = O=C(O)[C@@H]1CCCCN1; dPip = O=C(O)[C@H]1CCCCN1; hSer = N[C@@H](CCO)C(=O)O; NMeA = CN[C@@H](C)C(=O)O; Orn = NCCC[C@H](N)C(=O)O; dThz = O=C(O)[C@H]1CSCN1; Dab = NCC[C@H](N)C(=O)O; Dap = NC[C@H](N)C(=O)O; ξC = NC(CS)C(=O)O

biological target: T1, Human PD-L1/PD-1 (Homo sapiens, UniProt Q9NZQ7); assay: HTRF Human PD-L1/PD-1 binding assay (PD-1-Ig/PD-L1-His); conditions: PD-L1-His 10 nM, PD-1-Ig 20 nM; class symbol; read-out: HTRF Human PD-L1/PD-1 Binding Assay IC50 Range
T1 construct: TVMV protease cleavage site (C); made in house; host or cells: HEK293T cells
T1 sequence (Q9NZQ7 with tags, fused parts or gaps): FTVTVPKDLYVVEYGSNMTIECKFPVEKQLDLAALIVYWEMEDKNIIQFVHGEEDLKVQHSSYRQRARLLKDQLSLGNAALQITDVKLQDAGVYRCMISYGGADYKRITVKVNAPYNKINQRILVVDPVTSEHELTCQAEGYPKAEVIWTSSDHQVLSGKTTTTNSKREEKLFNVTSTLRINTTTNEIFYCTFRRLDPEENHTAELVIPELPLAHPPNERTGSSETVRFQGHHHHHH
In short: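 Inhibitors were preincubated 15 min with human PD-L1(18-239)-His (10 nM final), then PD-1(25-167)-Ig (20 nM final) was added for 15 min in dPBS/0.1% BSA/0.05% Tween-20. Eu-cryptate anti-Ig (1 nM) and APC anti-His (20 nM) were added; 665/620 nm ratio read after 30 min.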

Row | IC50 | SMILES
1 | 10 to 99.9 nM | CCCC[C@H]1C(=O)N2C[C@H](O)C[C@@H]2C(=O)N[C@@H](CC(=O)O)C(=O)N[C@@H](C(C)C)C(=O)N(C)[C@@H](Cc2ccccc2)C(=O)N[C@@H](CCC(=O)O)C(=O)N2C[C@H](O)C[C@@H]2C(=O)N[C@@H](Cc2c[nH]c3ccccc23)C(=O)N[C@@H](Cc2ccc(O)cc2)C(=O)N[C@@H](CC(=O)O)C(=O)N[C@H](C(=O)NCC(N)=O)CSCC(=O)N[C@@H](Cc2cc(F)c(F)c(F)c2)C(=O)N(C)[C@@H](Cc2ccccc2)C(=O)N1C [Example 9336] ({CH2CO}-[Phe(3,4,5-F3)][NMeF][NMeNle][d(cisHyp)]DV[NMeF]E[d(cisHyp)]WYDCG-NH2; thioether N-13)
2 | 1 to 9.9 nM | CCCC[C@H]1C(=O)N2C[C@H](O)C[C@@H]2C(=O)N[C@@H](CC(=O)O)C(=O)N[C@@H](C(C)C)C(=O)N(C)[C@@H](Cc2ccccc2)C(=O)N[C@@H](CCC(=O)O)C(=O)N2C[C@H](O)C[C@@H]2C(=O)N[C@@H](Cc2c[nH]c3ccccc23)C(=O)N[C@@H](Cc2ccc(O)cc2)C(=O)N[C@@H](CCCN)C(=O)N[C@H](C(=O)NCC(N)=O)CSCC(=O)N[C@@H](Cc2cc(F)c(F)c(F)c2)C(=O)N(C)[C@@H](Cc2ccc(F)cc2)C(=O)N1C [Example 10612] ({CH2CO}-[Phe(3,4,5-F3)][NMePhe(4-F)][NMeNle][d(cisHyp)]DV[NMeF]E[d(cisHyp)]WY[Orn]CG-NH2; thioether N-13)
3 | 1 to 9.9 nM | CCCC[C@H]1C(=O)N(C)[C@@H](CCCC)C(=O)N[C@@H](CC(C)C)C(=O)N[C@H](C(=O)NCC(N)=O)CSCC(=O)N[C@@H](Cc2ccc(O)cc2)C(=O)N(C)[C@@H](C)C(=O)N[C@@H](CC(N)=O)C(=O)N2CCC[C@H]2C(=O)N[C@@H](Cc2cnc[nH]2)C(=O)N[C@@H](CCCCN)C(=O)N2C[C@H](O)C[C@H]2C(=O)N[C@@H](Cc2c[nH]c3ccccc23)C(=O)N[C@@H](CCCCN)C(=O)N[C@@H](Cc2cn(CC(=O)O)c3ccccc23)C(=O)N1C [Example 6204] ({CH2CO}-Y[NMeA]NPHK[Hyp]WK[Trp(1-CH2COOH)][NMeNle][NMeNle]LCG-NH2; thioether N-14)
4 | 1 to 9.9 nM | CCCC[C@H]1C(=O)N2CCC[C@@H]2C(=O)N[C@@H](CCC(=O)O)C(=O)N[C@@H](C(C)C)C(=O)N(C)[C@@H](Cc2ccccc2)C(=O)N[C@@H](CC(=O)O)C(=O)N2CCCC[C@@H]2C(=O)N[C@@H](Cc2c[nH]c3ccccc23)C(=O)N[C@@H](Cc2ccc(O)cc2)C(=O)N[C@@H](CC(C)C)C(=O)N[C@H](C(=O)NCC(N)=O)CSCC(=O)N[C@@H](Cc2cc(F)c(F)c(F)c2)C(=O)N(C)[C@@H](Cc2ccc(F)cc2)C(=O)N1C [Example 10580] ({CH2CO}-[Phe(3,4,5-F3)][NMePhe(4-F)][NMeNle][dP]EV[NMeF]D[dPip]WYLCG-NH2; thioether N-13)
5 | 1 to 9.9 nM | CCCC[C@H]1C(=O)N(C)[C@@H](CCCC)C(=O)N[C@@H](CN)C(=O)N[C@H](C(=O)NCC(N)=O)CSCC(=O)N[C@@H](Cc2ccc(O)cc2)C(=O)N2CCCC[C@H]2C(=O)N[C@@H](CC(N)=O)C(=O)N2CCC[C@H]2C(=O)N[C@@H](CN)C(=O)N[C@@H](CCC(=O)O)C(=O)N2C[C@H](O)C[C@H]2C(=O)N[C@@H](Cc2c[nH]c3ccccc23)C(=O)N[C@@H](CCN)C(=O)N[C@@H](Cc2c[nH]c3ccccc23)C(=O)N1C [Example 1519] ({CH2CO}-Y[Pip]NP[Dap]E[Hyp]W[Dab]W[NMeNle][NMeNle][Dap]CG-NH2; thioether N-14)
6 | 1 to 9.9 nM | CCCC[C@H]1C(=O)N2C[C@@H](O)C[C@@H]2C(=O)N[C@@H](CC(=O)O)C(=O)N[C@@H](C(C)C)C(=O)N(C)[C@@H](Cc2ccccc2)C(=O)N[C@@H](CCC(=O)O)C(=O)N2CCCC[C@@H]2C(=O)N[C@@H](Cc2cn(CC(=O)O)c3ccccc23)C(=O)N[C@@H](Cc2ccc(O)cc2)C(=O)N[C@@H](CCN)C(=O)N[C@H](C(=O)NCC(N)=O)CSCC(=O)N[C@@H](Cc2cc(F)c(F)c(F)c2)C(=O)N(C)[C@@H](Cc2ccccc2)C(=O)N1C [Example 10585] ({CH2CO}-[Phe(3,4,5-F3)][NMeF][NMeNle][dHyp]DV[NMeF]E[dPip][Trp(1-CH2COOH)]Y[Dab]CG-NH2; thioether N-13)
7 | 10 to 99.9 nM | CCCC[C@H]1C(=O)N(C)[C@@H](CCCC)C(=O)N[C@@H](CCCNC(=N)N)C(=O)NC(C(=O)NCC(N)=O)CSCC(=O)N[C@@H](Cc2ccc(O)cc2)C(=O)N(C)[C@@H](C)C(=O)N[C@@H](CC(N)=O)C(=O)N2CCC[C@H]2C(=O)N[C@@H](CC(N)=O)C(=O)N[C@@H](CC(N)=O)C(=O)N2CCC[C@H]2C(=O)N[C@@H](Cc2c[nH]c3ccccc23)C(=O)N[C@@H](CO)C(=O)N[C@@H](Cc2csc3ccccc23)C(=O)N1C (stereo partly drawn) [Example 10042] ({CH2CO}-Y[NMeA]NPNNPWS[Bta][NMeNle][NMeNle]R[ξC]G-NH2; thioether N-14)
8 | 10 to 99.9 nM | CCCC[C@H]1C(=O)N2CCC[C@@H]2C(=O)N[C@@H](CC(=O)O)C(=O)N[C@@H](C(C)C)C(=O)N(C)[C@@H](Cc2ccccc2)C(=O)N[C@@H](CCC(=O)O)C(=O)N2CCOC[C@@H]2C(=O)N[C@@H](Cc2c[nH]c3ccccc23)C(=O)N[C@@H](Cc2ccc(O)cc2)C(=O)N[C@@H](CCCN)C(=O)N[C@H](C(=O)NCC(N)=O)CSCC(=O)N[C@@H](Cc2cc(F)c(F)c(F)c2)C(=O)N(C)[C@@H](Cc2ccc(O)cc2)C(=O)N1C [Example 10618] ({CH2CO}-[Phe(3,4,5-F3)][NMeY][NMeNle][dP]DV[NMeF]E[X1]WY[Orn]CG-NH2; thioether N-13)
9 | 10 to 99.9 nM | CCCC[C@H]1C(=O)N2CCOC[C@@H]2C(=O)N[C@@H](CC(=O)O)C(=O)N[C@@H](C(C)C)C(=O)N(C)[C@@H](Cc2ccccc2)C(=O)N[C@@H](CCC(=O)O)C(=O)N2CCC[C@@H]2C(=O)N[C@@H](Cc2c[nH]c3ccccc23)C(=O)N[C@@H](Cc2ccc(O)cc2)C(=O)N[C@@H](CCOC)C(=O)N[C@H](C(=O)NCC(N)=O)CSCC(=O)N[C@@H](Cc2cc(F)c(F)c(F)c2)C(=O)N(C)[C@@H](Cc2ccccc2)C(=O)N1C [Example 10192] ({CH2CO}-[Phe(3,4,5-F3)][NMeF][NMeNle][X1]DV[NMeF]E[dP]WY[hSer](Me)CG-NH2; thioether N-13)
10 | 1 to 9.9 nM | CCCC[C@H]1C(=O)N(C)[C@@H](CCCC)C(=O)N[C@@H](CCC(=O)O)C(=O)N[C@H](C(=O)NCC(N)=O)CSCC(=O)N[C@@H](Cc2ccc(O)cc2)C(=O)N(C)[C@@H](C)C(=O)N[C@@H](CC(=O)O)C(=O)N2CCC[C@H]2C(=O)N[C@@H](Cc2cnc[nH]2)C(=O)N[C@@H](CCC(=O)O)C(=O)N2C[C@H](O)C[C@H]2C(=O)N[C@@H](Cc2c[nH]c3ccccc23)C(=O)N[C@@H](CO)C(=O)N[C@@H](Cc2c[nH]c3ccccc23)C(=O)N1C [Example 5230] ({CH2CO}-Y[NMeA]DPHE[Hyp]WSW[NMeNle][NMeNle]ECG-NH2; thioether N-14)
11 | 1 to 9.9 nM | CCCC[C@H]1C(=O)N2CCC[C@@H]2C(=O)N[C@@H](CO)C(=O)N[C@@H](C(C)C)C(=O)N(C)[C@@H](Cc2ccccc2)C(=O)N[C@@H](Cc2ccc(O)cc2)C(=O)N2CSC[C@@H]2C(=O)N[C@@H](Cc2c[nH]c3ccccc23)C(=O)N[C@@H](Cc2ccc(O)cc2)C(=O)N[C@@H](CC(C)C)C(=O)N[C@H](C(=O)NCC(N)=O)CSCC(=O)N[C@@H](Cc2cc(F)c(F)c(F)c2)C(=O)N(C)[C@@H](Cc2ccccc2)C(=O)N1C [Example 10089] ({CH2CO}-[Phe(3,4,5-F3)][NMeF][NMeNle][dP]SV[NMeF]Y[dThz]WYLCG-NH2; thioether N-13)
12 | 1 to 9.9 nM | CCCC[C@H]1C(=O)N(C)[C@@H](CCCC)C(=O)N[C@@H](CCC(=O)O)C(=O)N[C@H](C(=O)NCC(N)=O)CSCC(=O)N[C@@H](Cc2ccc(OC)cc2)C(=O)N(C)[C@@H](C)C(=O)N[C@@H](CC(N)=O)C(=O)N2CCC[C@H]2C(=O)N[C@@H](Cc2cnc[nH]2)C(=O)N[C@@H](CCC(=O)O)C(=O)N2C[C@H](O)C[C@H]2C(=O)N[C@@H](Cc2c[nH]c3ccccc23)C(=O)N[C@@H](CCN)C(=O)N[C@@H](Cc2c[nH]c3ccccc23)C(=O)N1C [Example 7109] ({CH2CO}-Y(Me)[NMeA]NPHE[Hyp]W[Dab]W[NMeNle][NMeNle]ECG-NH2; thioether N-14)
13 | 10 to 99.9 nM | CCCC[C@H]1C(=O)N(C)[C@@H](CCCC)C(=O)N[C@@H](CCCNC(=N)N)C(=O)N[C@H](C(=O)NCC(N)=O)CSCC(=O)N[C@@H](Cc2ccc(Cl)cc2)C(=O)N(C)[C@@H](C)C(=O)N[C@@H](CC(N)=O)C(=O)N2CCC[C@H]2C(=O)N[C@@H](Cc2cnc[nH]2)C(=O)N[C@@H](CCC(=O)O)C(=O)N2C[C@H](O)C[C@H]2C(=O)N[C@@H](Cc2c[nH]c3ccccc23)C(=O)N[C@@H](CO)C(=O)N[C@@H](Cc2c[nH]c3ccccc23)C(=O)N1C [Example 7080] ({CH2CO}-[Phe(4-Cl)][NMeA]NPHE[Hyp]WSW[NMeNle][NMeNle]RCG-NH2; thioether N-14)
14 | 1 to 9.9 nM | CCCC[C@H]1C(=O)N(C)[C@@H](CCCC)C(=O)N[C@@H](CCC(=O)O)C(=O)NC(C(=O)NCC(N)=O)CSCC(=O)N[C@@H](Cc2ccc(O)cc2)C(=O)N(C)[C@@H](C)C(=O)N[C@@H](CC(N)=O)C(=O)N2CCC[C@H]2C(=O)N[C@@H](Cc2c[nH]cn2)C(=O)N[C@@H](CC(N)=O)C(=O)N2CCC[C@H]2C(=O)N[C@@H](Cc2c[nH]c3ccccc23)C(=O)N[C@@H](CCN)C(=O)N[C@@H](Cc2c[nH]c3ccccc23)C(=O)N1C (stereo partly drawn) [Example 9182] ({CH2CO}-Y[NMeA]NPHNPW[Dab]W[NMeNle][NMeNle]E[ξC]G-NH2; thioether N-14)
15 | 1 to 9.9 nM | CCCC[C@H]1C(=O)N(C)[C@@H](CCCC)C(=O)N[C@@H](CN)C(=O)N[C@H](C(=O)NCC(N)=O)CSCC(=O)N[C@@H](Cc2ccc(O)cc2)C(=O)N(C)[C@@H](C)C(=O)N[C@@H](CC(=O)O)C(=O)N2CCC[C@H]2C(=O)N[C@@H](CN)C(=O)N[C@@H](CC(C)C)C(=O)N2C[C@H](O)C[C@H]2C(=O)N[C@@H](Cc2c[nH]c3ccccc23)C(=O)N[C@@H](CO)C(=O)N[C@@H](Cc2cn(CC(=O)O)c3ccccc23)C(=O)N1C [Example 5227] ({CH2CO}-Y[NMeA]DP[Dap]L[Hyp]WS[Trp(1-CH2COOH)][NMeNle][NMeNle][Dap]CG-NH2; thioether N-14)
